Laboratory results: patent US20250147039A1, “Compounds for complexation of rare earth elements and/or s-, p-, d- block metals, their coordination compounds, peptide conjugates, method of their preparation and use thereof” (USTAV ORGANICKE CHEMIE A BIOCHEMIE AV CR V.V.I., priority 2021, published 2025)

What was measured:
[1] = Formation of 1,5-cz-[M(Lig)] from Lig and M^III ions (metal dependent click-zip) (Charts 4, 5); format: physicochemical; details: MOPS/NaOH buffer pH 7.0; for conversion to 1,5-cz-[M(Lig)], Sc^III / conversion to 1,5-cz-[M(Lig)], Y^III: TD728, TD827 in 50% i-PrOH; for conversion to 1,5-cz-[M(Lig)], Y^III: TD714 sum of two diastereoisomers
[2] = Formation of 1,5-cz-[Ln(Lig)] from Lig and Ln^III ions (metal dependent click-zip), MOPS/NaOH buffer pH 7.0, analytical HPLC (Charts 1, 2); details: MOPS/NaOH buffer pH 7.0

C#Cc1cccc(CN2CCN(CC(=O)O)CCN(Cc3cc(C(=O)OC(C)C)cc(CN=[N+]=[N-])n3)CCN(CC(=O)O)CC2)n1 [TD1148]
conversion to 1,5-cz-[Ln(Lig)] with hydrolysed group in the side chain, Sc^III ([1]; 1 week at 80° C.): 11% | conversion to 1,5-cz-[Ln(Lig)] with hydrolysed group in the side chain, Y^III ([1]; 1 week at 80° C.): 94% | conversion to 1,5-cz-[M(Lig)], Sc^III ([1]; 1 week at 80° C.): 0% | conversion to 1,5-cz-[M(Lig)], Y^III ([1]; 1 week at 80° C.): 0% | conversion to 1,5-cz-[Ln(Lig)] with hydrolysed group in the side chain, Sc^III ([1]; 1 hour at 80° C.): 0% | conversion to 1,5-cz-[Ln(Lig)] with hydrolysed group in the side chain, Y^III ([1]; 1 hour at 80° C.): 3% | conversion to 1,5-cz-[M(Lig)], Sc^III ([1]; 1 hour at 80° C.): 0% | conversion to 1,5-cz-[M(Lig)], Y^III ([1]; 1 hour at 80° C.): 18% | conversion to 1,5-cz-[Ln(Lig)] with hydrolysed group in the side chain, Ce^III ([2]; after 1 week at 80° C.): 27% | conversion to 1,5-cz-[Ln(Lig)], Ce^III ([2]; after 1 week at 80° C.): 0% | conversion to 1,5-cz-[Ln(Lig)] with hydrolysed group in the side chain, Ce^III ([2]; after 1 hour at 80° C.): 0% | conversion to 1,5-cz-[Ln(Lig)], Ce^III ([2]; after 1 hour at 80° C.): 0% | conversion to 1,5-cz-[Ln(Lig)] with hydrolysed group in the side chain, Dy^III ([2]; after 1 week at 80° C.): 93% | conversion to 1,5-cz-[Ln(Lig)], Dy^III ([2]; after 1 week at 80° C.): 0% | conversion to 1,5-cz-[Ln(Lig)] with hydrolysed group in the side chain, Dy^III ([2]; after 1 hour at 80° C.): 2% | conversion to 1,5-cz-[Ln(Lig)], Dy^III ([2]; after 1 hour at 80° C.): 14% | conversion to 1,5-cz-[Ln(Lig)] with hydrolysed group in the side chain, Er^III ([2]; after 1 week at 80° C.): 94% | conversion to 1,5-cz-[Ln(Lig)], Er^III ([2]; after 1 week at 80° C.): 0% | conversion to 1,5-cz-[Ln(Lig)] with hydrolysed group in the side chain, Er^III ([2]; after 1 hour at 80° C.): 4% | conversion to 1,5-cz-[Ln(Lig)], Er^III ([2]; after 1 hour at 80° C.): 33% | conversion to 1,5-cz-[Ln(Lig)] with hydrolysed group in the side chain, Eu^III ([2]; after 1 week at 80° C.): 90% | conversion to 1,5-cz-[Ln(Lig)], Eu^III ([2]; after 1 week at 80° C.): 0% | conversion to 1,5-cz-[Ln(Lig)] with hydrolysed group in the side chain, Eu^III ([2]; after 1 hour at 80° C.): 0% | conversion to 1,5-cz-[Ln(Lig)], Eu^III ([2]; after 1 hour at 80° C.): 4% | conversion to 1,5-cz-[Ln(Lig)] with hydrolysed group in the side chain, Gd^III ([2]; after 1 week at 80° C.): 90% | conversion to 1,5-cz-[Ln(Lig)], Gd^III ([2]; after 1 week at 80° C.): 0% | conversion to 1,5-cz-[Ln(Lig)] with hydrolysed group in the side chain, Gd^III ([2]; after 1 hour at 80° C.): 1% | conversion to 1,5-cz-[Ln(Lig)], Gd^III ([2]; after 1 hour at 80° C.): 5% | conversion to 1,5-cz-[Ln(Lig)] with hydrolysed group in the side chain, Ho^III ([2]; after 1 week at 80° C.): 94% | conversion to 1,5-cz-[Ln(Lig)], Ho^III ([2]; after 1 week at 80° C.): 0% | conversion to 1,5-cz-[Ln(Lig)] with hydrolysed group in the side chain, Ho^III ([2]; after 1 hour at 80° C.): 3% | conversion to 1,5-cz-[Ln(Lig)], Ho^III ([2]; after 1 hour at 80° C.): 21% | conversion to 1,5-cz-[Ln(Lig)] with hydrolysed group in the side chain, La^III ([2]; after 1 week at 80° C.): 36% | conversion to 1,5-cz-[Ln(Lig)], La^III ([2]; after 1 week at 80° C.): 0% | conversion to 1,5-cz-[Ln(Lig)] with hydrolysed group in the side chain, La^III ([2]; after 1 hour at 80° C.): 0% | conversion to 1,5-cz-[Ln(Lig)], La^III ([2]; after 1 hour at 80° C.): 0% | conversion to 1,5-cz-[Ln(Lig)] with hydrolysed group in the side chain, Lu^III ([2]; after 1 week at 80° C.): 96% | conversion to 1,5-cz-[Ln(Lig)], Lu^III ([2]; after 1 week at 80° C.): 0% | conversion to 1,5-cz-[Ln(Lig)] with hydrolysed group in the side chain, Lu^III ([2]; after 1 hour at 80° C.): 6% | conversion to 1,5-cz-[Ln(Lig)], Lu^III ([2]; after 1 hour at 80° C.): 57% | conversion to 1,5-cz-[Ln(Lig)] with hydrolysed group in the side chain, Nd^III ([2]; after 1 week at 80° C.): 71% | conversion to 1,5-cz-[Ln(Lig)], Nd^III ([2]; after 1 week at 80° C.): 0% | conversion to 1,5-cz-[Ln(Lig)] with hydrolysed group in the side chain, Nd^III ([2]; after 1 hour at 80° C.): 0% | conversion to 1,5-cz-[Ln(Lig)], Nd^III ([2]; after 1 hour at 80° C.): 1% | conversion to 1,5-cz-[Ln(Lig)] with hydrolysed group in the side chain, Pr^III ([2]; after 1 week at 80° C.): 61% | conversion to 1,5-cz-[Ln(Lig)], Pr^III ([2]; after 1 week at 80° C.): 0% | conversion to 1,5-cz-[Ln(Lig)] with hydrolysed group in the side chain, Pr^III ([2]; after 1 hour at 80° C.): 0% | conversion to 1,5-cz-[Ln(Lig)], Pr^III ([2]; after 1 hour at 80° C.): 0% | conversion to 1,5-cz-[Ln(Lig)] with hydrolysed group in the side chain, Sm^III ([2]; after 1 week at 80° C.): 86% | conversion to 1,5-cz-[Ln(Lig)], Sm^III ([2]; after 1 week at 80° C.): 0% | conversion to 1,5-cz-[Ln(Lig)] with hydrolysed group in the side chain, Sm^III ([2]; after 1 hour at 80° C.): 0% | conversion to 1,5-cz-[Ln(Lig)], Sm^III ([2]; after 1 hour at 80° C.): 3% | conversion to 1,5-cz-[Ln(Lig)] with hydrolysed group in the side chain, Tb^III ([2]; after 1 week at 80° C.): 91% | conversion to 1,5-cz-[Ln(Lig)], Tb^III ([2]; after 1 week at 80° C.): 0% | conversion to 1,5-cz-[Ln(Lig)] with hydrolysed group in the side chain, Tb^III ([2]; after 1 hour at 80° C.): 1% | conversion to 1,5-cz-[Ln(Lig)], Tb^III ([2]; after 1 hour at 80° C.): 9% | conversion to 1,5-cz-[Ln(Lig)] with hydrolysed group in the side chain, Tm^III ([2]; after 1 week at 80° C.): 95% | conversion to 1,5-cz-[Ln(Lig)], Tm^III ([2]; after 1 week at 80° C.): 0% | conversion to 1,5-cz-[Ln(Lig)] with hydrolysed group in the side chain, Tm^III ([2]; after 1 hour at 80° C.): 5% | conversion to 1,5-cz-[Ln(Lig)], Tm^III ([2]; after 1 hour at 80° C.): 45% | conversion to 1,5-cz-[Ln(Lig)] with hydrolysed group in the side chain, Yb^III ([2]; after 1 week at 80° C.): 95% | conversion to 1,5-cz-[Ln(Lig)], Yb^III ([2]; after 1 week at 80° C.): 0% | conversion to 1,5-cz-[Ln(Lig)] with hydrolysed group in the side chain, Yb^III ([2]; after 1 hour at 80° C.): 5% | conversion to 1,5-cz-[Ln(Lig)], Yb^III ([2]; after 1 hour at 80° C.): 54%
